Values quoted from earlier work as cited in publication PMC8433641, “A Stability-Indicating Ultra Performance Liquid Chromato-Graphic (UPLC) Method for the Determination of a Mycophenolic Acid-Curcumin Conjugate and Its Applications to Chemical Kinetic Studies” (Molecules, 2021).

Parameters: method as in PMID 29678124
Conditions: pH 7.4

curcumin
t1/2: 33.6 min
